Test results from patent US7979117B2, “Device and method for controlled delivery of active substance into the skin” (Power Paper Ltd., priority 2001, dated 2011).
Where “and” joins values, the source holds several entries; their conditions need not be identical. Equal values may be shown once.

Assay: Dual chamber in-vitro skin penetration test (iontophoresis vs passive)
Assay type: in vitro ADME, Porcine
From the text: One type of skin penetration test can be implemented in-vitro by using excised swine skin membrane with two electrodes placed thereon, with one of the two being associated with a formulation including an active substance to be delivered by iontophoresis, as described, for example in: P. Glikfeld, C. Cullander, R. S. Hinz, and R. H. Guy, A new system for in vitro studies of iontophoresis, Pharm. Res. 5: 443-446 (1988) (hereinafter, the “dual chamber in-vitro test”). Description of the experimental design of an in-vitro skin penetration test is provided in Example No. 1. In a non-limiting way, any of the following parameters can be varied and tested with this model: voltage, current and current density, concentration of an active substance, pH, viscosity, concentration of a buffer, concentration of an electrolyte, concentration of a polymeric substance which is used to render certain rheological properties, conductivity, viscosity and adhesiveness. The influence of pore size and density of a substrate can also be assessed in a modified in-vitro skin penetration test. Delivery of the active substance into and through the skin will be determined as a function of the time of current passage.
Example No. 1 was devised to define, in a preclinical study, the optimal iontophoretic parameters for the delivery of an active substance contained in a cosmetic carrier into the skin, while minimizing systemic exposure.
In general, the active agent is formulated in a buffered, conducting solution, gel, cream, or any other optional cosmetically acceptable carrier. Competing ions are kept to a minimum. Iontophoresis is performed in vertical diffusion cells, in which the skin membrane separates the physically- and electrically-isolated anode and cathode chambers from the receptor phase, or in modified side-by-side cells of a newer design. The anode and receptor compartments contain physiologically-buffered saline at pH 7, while the cathode compartment is charged with the gel containing the active.
The skin membrane is from the porcine ear (Alternatively, human (cadaver) or nude mouse skin can be used). The skin is excised with a dermatome set to an approximate depth of 500 μm. The area of skin exposed in each electrode compartment is 0.64 cm^2.
The electrodes transmitting the electrical current are made of Ag/AgCl or graphite, prepared in a customary fashion. A constant current is passed between the electrodes and controlled by a custom-built power supply (Professional Design and Development Services, Berkeley, Calif.).
In each study, preparation, with electrical current (“Iontophoretic System”) and without electrical current (“Control”), are tested. Exposure period is 20-30 minutes. Six replicates are performed per experiment. Prior to each experiment, the viability and integrity of skin barrier function is checked via a measurement of transepidermal water loss (TEWL).
At the end of the exposure period, the entire receptor compartment is drained and the solution reserved for subsequent analysis of the active agent(s) (“Active”). The skin is removed, and the surfaces carefully cleaned and dried. Subsequently, the stratum corneum (“SC”) beneath the cathode chamber is removed by repeated 15 adhesive tape strippings (“TS”). The Active is extracted from the respective tapes and assayed to yield a total uptake of the compound into the SC. The remaining SC-stripped skin from beneath the cathode is then appropriately treated so as to recover the Active, which had crossed the SC barrier, during iontophoresis, and reached into the underlying epidermis/upper dermis. The Active is determined quantitatively using customary analytical procedures (e.g., HPLC, UV spectrum, GC, radiolabeled detection, etc.), as applicable.
Results of an In-Vitro Skin Penetration Test for Magnesium Ascorbyl Phosphate (MAP) Aqueous Solution, Using the “Dual Chamber In-Vitro Test”
Active Substance: Magnesium Ascorbyl Phosphate (MAP) (Vitamin C Derivative) […]

[1] = Iontophoretic System, 3% in distilled water, 25 mg applied, pH 7.0-7.4, 0.150 mA/cm^2, 30 minutes, individual cell
[2] = Iontophoretic System, 3%, 0.150 mA/cm^2, 30 minutes, Mean of 6 cells
[3] = Passive Control (without electrical current)

SMILES: O=C1O[C@H]([C@@H](O)CO)C([O-])=C1OP(=O)([O-])[O-].O=C1O[C@H]([C@@H](O)CO)C([O-])=C1OP(=O)([O-])[O-].[Mg+2].[Mg+2].[Mg+2] [MAP, Magnesium Ascorbyl Phosphate]
- Amount of Active, Receptor [1]: 47.66 µg and 122.75 µg and 14.62 µg and 23.47 µg and 24.99 µg and 25.43 µg
- Amount of Active, TS # 1, 2 [1]: 92.41 µg and 50.37 µg and 103.88 µg and 132.28 µg and 48.43 µg and 89.89 µg
- Amount of Active, TS # 3-15 [1]: 89.22 µg and 2.94 µg and 115.27 µg and 43.90 µg and 8.71 µg and 50.43 µg
- Amount of Active, TS Total [1]: 181.63 µg and 53.31 µg and 219.15 µg and 176.18 µg and 57.14 µg and 140.32 µg
- Amount of Active, Viable Skin [1]: 33.94 µg and 4.55 µg and 56.67 µg and 8.44 µg and 19.24 µg and 10.30 µg
- Total TS # 3-15 + Viable Skin [1]: 123.16 µg and 7.49 µg and 171.94 µg and 52.34 µg and 27.95 µg and 60.73 µg
- Total TS # 3-15 + Viable skin [1]: 183.82 μg/cm2 and 11.18 μg/cm2 and 256.63 μg/cm2 and 78.12 μg/cm2 and 41.72 μg/cm2 and 10.89 μg/cm2
- Amount of Active, Receptor (transferred through the skin) [2]: 43 µg and 43.15 µg
- Amount of Active, TS # 1, 2 [2]: 73.77 µg
- Amount of Active, TS # 3-15 [2]: 42.06 µg
- Amount of Active, TS Total [2]: 115.82 µg
- Amount of Active, Viable Skin [2]: 23 µg and 23.07 µg
- Total TS # 3-15 + Viable Skin (amount in the skin) [2]: 65 µg and 65.13 µg
- Total TS # 3-15 + Viable skin [2]: 97.21 μg/cm2
- total amount found in the skin (TS#1-15+ Viable skin) (Iontophoretic System, 3%, 0.150 mA/cm^2, 30 minutes, mean): 139 µg
- mean amount found in the receptor [3]: 2 µg
- mean amount found in the viable skin [3]: 1 µg
- mean total amount found in tape strippings #1-15, compared with Iontophoretic System [3]: in the same order of magnitude
